Results from ChEMBL document CHEMBL1151467, “Antimicrobial resistance genes associated with Salmonella enterica serovar newport isolates from food animals” (2008).
Values after ≈ are worked out from the molar mass of the structure shown.

How the values were obtained:
[1] = test system: Salmonella enterica subsp. enterica; assay: Antibacterial activity against aacC-expressing Salmonella enterica subsp. enterica serovar Newport isolated from food animals; type: functional, organism-based
[2] = test system: Salmonella enterica subsp. enterica; assay: Antibacterial activity against susceptible Salmonella enterica subsp. enterica serovar Newport isolated from food animals; type: functional, organism-based
[3] = test system: Salmonella enterica subsp. enterica; assay: Antibacterial activity against blaCMY-expressing Salmonella enterica subsp. enterica serovar Newport isolated from food animals; type: functional

Compound | MIC [1] [µg/mL] | MIC [2] [µg/mL] | MIC [3] [µg/mL]
GENTAMICIN | 1 | < 0.25 | –
CO/N=C(\C(=O)N[C@@H]1C(=O)N2C(C(=O)O)=C(CSc3nc(=O)c(O)nn3C)CS[C@H]12)c1csc(N)n1 [CEFTRIAXONE] | – | – | 16 (≈ 28.9 µM)
